By kinetic solubility is commonly meant the concentration staying in solution when a stock, usually in DMSO, is diluted into the medium.

Results on 103 molecules are retold here after PubChem BioAssay AID1996.

≈ marks a conversion by molar mass, not a printed value.

For this data set the following is noted: buffer; pH 7.4; 200.0 µM.
`Cc1ccc(Cl)cc1NC(=O)NCc1cccnc1` gave a solubility (kinetic) of 18.5 µg/mL (≈ 67.1 µM). On to `Cc1ccc(C(=O)OCN2C(=O)c3ccccc3C2=O)c(O)c1`, for which the solubility (kinetic) is below 0.7 µg/mL.

Molecule `Cc1cccc(N2CN=C3SCC(=O)N3C2)c1` displayed a solubility (kinetic) above 37.1 µg/mL. Molecule `CCNC(=O)NC(=O)C(C)OC(=O)CCCc1nc2ccccc2s1` (stereo not drawn) showed a kinetic solubility of 49.4 µg/mL (≈ 136 µM).

The molecule `CCN(CC(=O)Nc1cc(Cl)ccc1C)C(=O)C1CC1` gave a kinetic solubility above 44.2 µg/mL. Take `Cc1ccc(C)c(S(=O)(=O)c2c(C)cc(C)nc2Cl)c1`: the kinetic solubility is 27 µg/mL (≈ 87.1 µM).

Molecule `O=C(Nc1ccccc1Cl)C1Cc2ccccc2O/C1=N\O` (stereo not drawn) gave a solubility (kinetic) above 47.5 µg/mL. Under `CC(C)Cc1ccc(C(C)C(N)=Nc2ccc(O)cc2)cc1.Cl` (stereo not drawn) stands above 49.9 µg/mL.

The molecule `CCCn1c(=N)n(CC(O)COc2ccc(C)cc2)c2ccccc21.Cl` (stereo not drawn) came in with a solubility (kinetic) above 56.4 µg/mL. Take `COc1cccc(NCCC(=O)c2cccc([N+](=O)[O-])c2)c1`: the solubility (kinetic) amounted to 12.4 µg/mL (≈ 41.3 µM).

With `CC(C)N1CC(C(=O)Nc2ccc(F)c(Cl)c2)CC1=O` (stereo not drawn), the solubility (kinetic) is above 44.8 µg/mL. As for `CC1CN(CCC(=O)Nc2ccccc2F)CC(C)O1` (stereo not drawn), the kinetic solubility was above 42.1 µg/mL. The same measure for `COC(=O)CSc1ncnc2scc(-c3ccccc3)c12`: 11.2 µg/mL (≈ 35.4 µM); for `Cc1ccc(-c2csc(NC(=O)c3ccc([N+](=O)[O-])o3)n2)cc1`: 1.2 µg/mL (≈ 3.64 µM); for `O=C(Nc1nccs1)[C@@H]1CCCN1C(=O)c1cccs1`: 30.6 µg/mL (≈ 99.5 µM). Molecule `CN(C(=O)c1cccc(S(=O)(=O)NCc2ccccc2)c1)C1CCCCC1` came in with a kinetic solubility of 50.7 µg/mL (≈ 131 µM). The molecule `Cc1ccc(-c2nc(-c3ccncc3)no2)cc1Cl` returned a kinetic solubility below 0.2 µg/mL.

`CC(=O)c1ccc(NS(=O)(=O)c2ccc3c(c2)CCC(=O)N3)cc1` had a kinetic solubility of 48.3 µg/mL (≈ 140 µM). Regarding `CN1C(=O)c2ccc(C(=O)Nc3ccccc3O)cc2C1=O`, the solubility (kinetic) turned out to be 13.1 µg/mL (≈ 44.2 µM).

Molecule `CN(CC(=O)Nc1ccc(F)cc1)C(=O)CN1C(=O)NC2(CCCCC2)C1=O` gave a kinetic solubility of 0.7 µg/mL (≈ 1.79 µM). In the case of `Cc1ccc(C(=O)Nc2cccc(C(=O)NC3CCCCC3)c2)cc1`, the kinetic solubility was below 0.4 µg/mL. Regarding `COc1ccc2cc(C(=O)NCCc3ccccc3)[nH]c2c1`, the solubility (kinetic) is below 0.3 µg/mL.

As to `N/C(=N\OC(=O)Cc1ccc(-c2ccccc2)cc1)c1ccncc1`, the solubility (kinetic) came out at 0.7 µg/mL (≈ 2.11 µM). On to `CCc1ccc2oc(C(=O)Nc3cccnc3)c(C)c2c1`, for which the kinetic solubility came out at 1 µg/mL (≈ 3.57 µM). The same measure for `COC(=O)[C@@H](NC(=O)N1CCC(Cc2ccccc2)CC1)C(C)C`: above 49.9 µg/mL. The same measure for `CCOc1ccc(S(=O)(=O)NCCC(=O)N2CCCN(C)CC2)cc1`: 50.4 µg/mL (≈ 136 µM); for `CC(C)Cn1c(=S)[nH]c2ccccc2c1=O`: 1.6 µg/mL (≈ 6.83 µM). In turn, `CCn1c(SCc2cccc(F)c2)nc2c(c1=O)SCC2` returned a solubility (kinetic) of 11.2 µg/mL (≈ 34.7 µM). In the case of `Cc1nc(-c2ccc(NC(=O)c3ccc(Br)o3)cc2)cs1`, the kinetic solubility was below 0.4 µg/mL. Molecule `CC1CC(C)(C)NC(=S)N1CCC(=O)N1CCc2ccccc21` (stereo not drawn) had a solubility (kinetic) of 14.6 µg/mL (≈ 44 µM).

Molecule `N=C(N=C(N)N)N1CCc2ccccc21` showed a solubility (kinetic) above 30.5 µg/mL. With `Clc1ccc(N2CCN(c3ccnc(Cl)n3)CC2)cc1`, the kinetic solubility came to 2.3 µg/mL (≈ 7.44 µM). The molecule `COc1ccc(OC)c(NC(=O)N2CCCc3ccccc32)c1` registered a kinetic solubility of 1.7 µg/mL (≈ 5.44 µM). In turn, `Cc1noc(C)c1C(=O)Nc1ccc(C#N)cc1` registered a solubility (kinetic) above 36.2 µg/mL. On to `O=C(c1cc(F)c(F)cc1Cl)N1CCCc2ccccc21`, for which the kinetic solubility was determined as 30.3 µg/mL (≈ 98.5 µM). On to `Oc1ccc2ccccc2c1CN1CCCC1`, for which the kinetic solubility was 32 µg/mL (≈ 141 µM). With `COc1ccccc1-c1nc(C#N)c(NCCCn2ccnc2)o1`, the solubility (kinetic) is above 48.5 µg/mL. For `O=C1NC(=O)C(Cc2c[nH]c3ccccc23)N1` (stereo not drawn), the solubility (kinetic) was above 34.4 µg/mL. `COC(=O)c1ccccc1C(=O)N(c1ccccc1)c1ccccc1`: the solubility (kinetic) is 44.4 µg/mL (≈ 134 µM). Consider `CCC(=O)c1ccc(OCC(=O)NC2(C#N)CCCCC2)cc1`, for which the solubility (kinetic) was 45.4 µg/mL (≈ 144 µM). Under `O=c1c2[nH]c3ccc(F)cc3c2ncn1Cc1ccncc1` stands 3.3 µg/mL (≈ 11.2 µM); under `Nc1ccccc1Sc1ccc(C(F)(F)F)cc1[N+](=O)[O-]`, 5.6 µg/mL (≈ 17.8 µM); under `COC(=O)c1cc(S(=O)(=O)N2CCCC(C)C2)c[nH]1` (stereo not drawn), above 43 µg/mL.

In the case of `Cc1ccc(NC(=O)/C(Cl)=C\c2ccccc2)cc1`, the kinetic solubility is 1.4 µg/mL (≈ 5.15 µM).

Molecule `O=C(NCC1CCCO1)c1cc(-c2ccccc2)nc2ccccc12` (stereo not drawn) gave a kinetic solubility above 49.9 µg/mL. In the case of `Cc1ccc(Nc2ccncc2S(N)(=O)=O)cc1`, the kinetic solubility was 33 µg/mL (≈ 125 µM).

On to `COc1ccc2oc(=O)c(C(=O)NCCc3ccc(OC)c(OC)c3)cc2c1`, for which the kinetic solubility was below 0.8 µg/mL.

For `O=C(Nc1ncccc1O)c1ccc2ccccc2c1`, the solubility (kinetic) was above 39.6 µg/mL.

`CC(C)Cn1cc(Cl)c(=O)n(CC(C)C)c1=O` gave a kinetic solubility above 38.8 µg/mL.

For `CCOC(=O)c1cnc(Nc2ccccc2)nc1C(F)(F)F`, the kinetic solubility amounted to 2.1 µg/mL (≈ 6.75 µM). Molecule `Cc1ccccc1C(=O)Nc1nc2c(C)csc2c(=O)s1` displayed a kinetic solubility below 0.3 µg/mL. The same measure for `CN(Cc1ccco1)S(=O)(=O)c1csc(C(N)=O)c1`: 44.7 µg/mL (≈ 149 µM); for `Cc1cc(NS(=O)(=O)c2ccc(NC(=O)Cc3ccc([N+](=O)[O-])cc3)cc2)nc(C)n1`: above 66.2 µg/mL; for `CCOc1ccc(C(=O)NCCN2CCCCC2)c(OCC)c1`: above 48.1 µg/mL. The same measure for `COc1cc(OC)c(C(=O)Nc2cccnc2)cc1OC`: above 43.2 µg/mL. Turning to `Cc1cc(N2CCN(C(=O)c3cccs3)CC2)c(F)cc1[N+](=O)[O-]`, the kinetic solubility came to 1.5 µg/mL (≈ 4.29 µM). In turn, `O=C(CN1CCN(c2ccccc2)CC1)Nc1ccc(F)cc1` came in with a solubility (kinetic) above 47 µg/mL. For the molecule `Cc1ccc(C(=O)/C=C/c2ccccc2[N+](=O)[O-])cc1`, the solubility (kinetic) was 6.8 µg/mL (≈ 25.4 µM). Under `O=C(NCC1CCCO1)c1cc2ccccc2o1` (stereo not drawn) stands above 36.8 µg/mL. Take `O=C(c1ccccc1)C1CCN(C(=O)c2cccs2)CC1`: the solubility (kinetic) came to 38.9 µg/mL (≈ 130 µM).

`COc1ccc(CNc2ccc([N+](=O)[O-])cc2C)cc1`: the kinetic solubility was 2.1 µg/mL (≈ 7.71 µM). Under `CC(OC(=O)c1cccc([N+](=O)[O-])c1)C(=O)N1CCc2ccccc21` (stereo not drawn) stands 3.7 µg/mL (≈ 10.9 µM); under `CC(C)CCNc1nc2ccccc2nc1NS(=O)(=O)c1cccs1`, 7.3 µg/mL (≈ 19.4 µM); under `Cc1ccc(C)c(NC(=O)CN(C)C(=O)c2cc3ccccc3oc2=O)c1`, above 54.7 µg/mL.

Molecule `CCCC(=O)Nc1cc2c(cc1C(C)=O)OCCO2` displayed a solubility (kinetic) above 39.5 µg/mL. In the case of `N#Cc1ccccc1S(=O)(=O)Nc1ccc2c(c1)OCCO2`, the kinetic solubility is above 47.4 µg/mL. For `CNC(=O)c1ccccc1Sc1cccc2cccc(C(=O)O)c12`, the kinetic solubility was above 50.6 µg/mL. In turn, `N/C(CCS(=O)(=O)c1ccc(Cl)cc1)=N\OC(=O)c1ccccc1Cl` had a kinetic solubility of 41.6 µg/mL (≈ 104 µM). Regarding `O=C(N/N=C/c1ccccn1)C(O)c1ccccc1` (stereo not drawn), the kinetic solubility was above 38.3 µg/mL. In turn, `O=C(O)Cn1c(=O)c2c(c3ccccc31)CCC2` registered a solubility (kinetic) above 36.5 µg/mL. `Cc1ccc(CNC(=O)CCSCc2cccc(F)c2)cc1` registered a solubility (kinetic) of 5.2 µg/mL (≈ 16.4 µM). Turning to `Cc1c(C(=O)Nc2c(C)n(C)n(-c3ccccc3)c2=O)oc2ccc(Cl)cc12`, the kinetic solubility was above 59.4 µg/mL. The same measure for `Cc1nc2ccccc2cc1C(=O)N(C)Cc1ccccc1`: 43 µg/mL (≈ 148 µM); for `Cc1[nH]c(=O)[nH]c(=O)c1S(=O)(=O)Nc1ccc(F)cc1Cl`: above 50.1 µg/mL.

`Cc1ccc(N(CN2C(=O)C3C4CCC(C4)C3C2=O)C(=O)c2ccco2)cc1` (stereo not drawn) showed a solubility (kinetic) of 53.9 µg/mL (≈ 142 µM). On to `O=C1NC2(CCCCCC2)C(=O)N1Cc1cccc([N+](=O)[O-])c1`, for which the kinetic solubility came to 32.1 µg/mL (≈ 101 µM). The same measure for `COc1ccc(-c2nc(C#N)c(N3CCC(C)CC3)o2)cc1`: 0.3 µg/mL (≈ 1.01 µM); for `CCCCc1nc2cc(C(=O)NCc3cn(C)nc3C)ccc2o1`: above 49 µg/mL; for `O=C(CNC(=O)c1ccco1)Nc1cccc(Cl)c1`: 18.9 µg/mL (≈ 67.8 µM). The molecule `Cc1ccc(OCc2ccc(Br)cc2)c([N+](=O)[O-])n1` yielded a solubility (kinetic) of 2.2 µg/mL (≈ 6.81 µM). `CC(=O)N1NC(=Nc2ccccc2)SC1(C)C` showed a solubility (kinetic) above 37.4 µg/mL. With `O=C(Nc1cc(Cl)ccc1N1CCOCC1)C1CC1`, the kinetic solubility was above 42.1 µg/mL. Molecule `Cn1c(N)c(C(=O)COC(=O)Cc2cccc(C(F)(F)F)c2)c(=O)n(C)c1=O` returned a solubility (kinetic) of 53.2 µg/mL (≈ 133 µM). For the molecule `COc1ccccc1C(=O)N=c1sc2c(C)ccc(OC)c2n1C`, the kinetic solubility came to 1.8 µg/mL (≈ 5.26 µM). `Cc1ccc(S(=O)(=O)NCC(=O)OCC(=O)N(CCC#N)c2ccccc2)cc1` came in with a solubility (kinetic) above 62.3 µg/mL. The molecule `c1ccc2nc3ccccc3nc2c1` came in with a kinetic solubility of 12.3 µg/mL (≈ 68.3 µM). Consider `O=C1ON=C(c2ccccc2)/C1=C\c1ccco1`, for which the kinetic solubility was 35.2 µg/mL (≈ 147 µM). The molecule `CC(=O)c1ccccc1NCC(=O)Nc1ccc(C)cc1` came in with a solubility (kinetic) of 11.2 µg/mL (≈ 39.7 µM). With `CC(C)NC(=O)C1c2ccccc2Oc2ccccc21`, the kinetic solubility was 1.1 µg/mL (≈ 4.11 µM). `CC(Nc1ccccc1)c1ccncc1` (stereo not drawn) gave a kinetic solubility above 29.7 µg/mL. Consider `COc1ccccc1N1CN(CCc2ccccc2)CNC1=S`, for which the kinetic solubility was determined as 45.4 µg/mL (≈ 139 µM). On to `O=C1/C(=C/c2ccccn2)SC(=S)N1CCc1ccccc1`, for which the solubility (kinetic) worked out at 0.4 µg/mL (≈ 1.23 µM). Turning to `O=c1c2ccccc2nc(-c2ccccc2)n1-c1ccccc1O`, the solubility (kinetic) is 38.3 µg/mL (≈ 122 µM). Under `CCOCCCNC(=O)C1CCCN1C(=O)Nc1ccccc1[N+](=O)[O-]` (stereo not drawn) stands above 54.7 µg/mL; under `Cc1nc2ccc([N+](=O)[O-])cc2s1`, 19.4 µg/mL (≈ 99.9 µM). `CSc1nnc(C)c(=O)n1COC(=O)c1ccccc1` had a solubility (kinetic) above 43.7 µg/mL. Turning to `O=C(NCc1cccnc1)C(=O)NCC(c1ccco1)N1CCOCC1` (stereo not drawn), the solubility (kinetic) was above 53.8 µg/mL. With `CC(=O)C(Cc1ccccc1)NC(=O)COc1ccc2c(c1)OCO2` (stereo not drawn), the solubility (kinetic) is above 51.2 µg/mL. `CCOn1c(=O)c(-c2ccccc2)[n+]([O-])c2ccccc21` came in with a solubility (kinetic) above 42.3 µg/mL. `CCSc1nsc(NC(=O)Nc2ccccc2F)n1` had a kinetic solubility of 1.4 µg/mL (≈ 4.69 µM).

`COC(=O)c1sc(N(C)C)c(C#N)c1-c1ccccc1` returned a kinetic solubility of 1.8 µg/mL (≈ 6.29 µM). As for `CN(Cc1cccc(Cl)c1)C(=O)C1CSC2(C)CCC(=O)N12` (stereo not drawn), the kinetic solubility was above 50.8 µg/mL. `CN(CC(=O)Nc1c(Cl)cccc1Cl)C(=O)Cc1ccsc1` yielded a solubility (kinetic) above 53.6 µg/mL.
